# PMC7835237, “Dual mechanism β-amino acid polymers promoting cell adhesion” (Nature Communications, 2021)
# How the values were obtained:
# [1] = system: MC3T3-E1 preosteoblast cells; experiment: Cell spreading area on modified surfaces (immunofluorescence analysis of cell morphology); format: cell-based, mouse
# Protocol: The degree of cell spreading on a functionalized glass slide was measured by immunofluorescence analysis. After culture medium was removed, the slide was washed with PBS and then cells on the slide were fixed with 4% paraformaldehyde for 20 min. The slide was washed with PBS thrice and incubated for 5 min with 0.4% triton-X in PBS. Subsequently, the slide was washed with PBS thrice, followed by blocking with 3% bovine serum albumin (BSA) in PBS for 1 h at rt and then incubated with Alexa Fluor-555-conjugated anti-vinculin antibody (1:300 in PBS) overnight at 4 °C. The slide was washed with PBS thrice and incubated for 2 h with FITC-phalloidin (1:200 in PBS) and 4′-6-diamidino-2-phenylindole (DAPI) (5 μg/mL) for 10 min. The slide was washed with PBS thrice and its fluorescent images were collected on a confocal microscope (Nikon A1R, Japan).
# [2] = system: MC3T3-E1 preosteoblast cells; experiment: Cell adhesion in a serum-free environment with enzyme-pretreated cells; format: cell-based, mouse; parameters: unit not given here; conditions: serum-free medium, 1 day
# Protocol: Cells were detached and washed thrice with a serum-free medium. In order to examine the impact of cell membrane-tethered proteins on cell adhesion in a serum-free environment, cells were suspended and incubated at 37 °C for 20 min in 3 mL serum-free α-MEM medium that contains 0.307 U/mL plasmin, 10 U/mL collagenase (types I and II), 2 U/mL heparinase (types I, II, and III), or 10 U/mL hyaluronidase, respectively. The protease-treated cells were washed and suspended in a serum-free α-MEM to a final concentration of 1.5 × 10^5 cells/mL. An aliquot of 10 μL this cell suspension was added to each individual well (formed by a 50-well silicon coverslip on the top of a glass slide) that has bottom surface modified with DM50CO50, RGD, or KRSR, respectively, and then the slide was placed in a petri dish for incubation at 37 °C for 2 h for cell attachment. Then additional fresh medium was added into the petri dish to immerse the entire slide and the whole dish was incubated for 1 day. After removing the medium, cells were stained with a live/dead staining solution and the fluorescent images were captured under a microscope (Nikon Eclipse Ti-S, Japan) at different locations of each well. The collected images were analyzed using Image-pro plus software.
# [3] = Control: untreated cells, value 1 of n = 9
# [4] = Control: untreated cells, value 2 of n = 9
# [5] = Control: untreated cells, value 3 of n = 9
# [6] = Control: untreated cells, value 4 of n = 9
# [7] = Control: untreated cells, value 5 of n = 9
# [8] = Control: untreated cells, value 6 of n = 9
# [9] = Control: untreated cells, value 7 of n = 9
# [10] = Control: untreated cells, value 8 of n = 9
# [11] = Control: untreated cells, value 9 of n = 9
# [12] = cells pretreated with Collagenase 10 U/mL, value 1 of n = 9
# [13] = cells pretreated with Collagenase 10 U/mL, value 2 of n = 9
# [14] = cells pretreated with Collagenase 10 U/mL, value 3 of n = 9
# [15] = cells pretreated with Collagenase 10 U/mL, value 4 of n = 9
# [16] = cells pretreated with Collagenase 10 U/mL, value 5 of n = 9
# [17] = cells pretreated with Collagenase 10 U/mL, value 6 of n = 9
# [18] = cells pretreated with Collagenase 10 U/mL, value 7 of n = 9
# [19] = cells pretreated with Collagenase 10 U/mL, value 8 of n = 9
# [20] = cells pretreated with Collagenase 10 U/mL, value 9 of n = 9
# [21] = cells pretreated with Heparinase 2 U/mL, value 1 of n = 9
# [22] = cells pretreated with Heparinase 2 U/mL, value 2 of n = 9
# [23] = cells pretreated with Heparinase 2 U/mL, value 3 of n = 9
# [24] = cells pretreated with Heparinase 2 U/mL, value 4 of n = 9
# [25] = cells pretreated with Heparinase 2 U/mL, value 5 of n = 9
# [26] = cells pretreated with Heparinase 2 U/mL, value 6 of n = 9
# [27] = cells pretreated with Heparinase 2 U/mL, value 7 of n = 9
# [28] = cells pretreated with Heparinase 2 U/mL, value 8 of n = 9
# [29] = cells pretreated with Heparinase 2 U/mL, value 9 of n = 9
# [30] = cells pretreated with Hyaluronidase 10 U/mL, value 1 of n = 9
# [31] = cells pretreated with Hyaluronidase 10 U/mL, value 2 of n = 9
# [32] = cells pretreated with Hyaluronidase 10 U/mL, value 3 of n = 9
# [33] = cells pretreated with Hyaluronidase 10 U/mL, value 4 of n = 9
# [34] = cells pretreated with Hyaluronidase 10 U/mL, value 5 of n = 9
# [35] = cells pretreated with Hyaluronidase 10 U/mL, value 6 of n = 9
# [36] = cells pretreated with Hyaluronidase 10 U/mL, value 7 of n = 9
# [37] = cells pretreated with Hyaluronidase 10 U/mL, value 8 of n = 9
# [38] = cells pretreated with Hyaluronidase 10 U/mL, value 9 of n = 9
# [39] = cells pretreated with Plasmin 0.307 U/mL, value 1 of n = 9
# [40] = cells pretreated with Plasmin 0.307 U/mL, value 2 of n = 9
# [41] = cells pretreated with Plasmin 0.307 U/mL, value 3 of n = 9
# [42] = cells pretreated with Plasmin 0.307 U/mL, value 4 of n = 9
# [43] = cells pretreated with Plasmin 0.307 U/mL, value 5 of n = 9
# [44] = cells pretreated with Plasmin 0.307 U/mL, value 6 of n = 9
# [45] = cells pretreated with Plasmin 0.307 U/mL, value 7 of n = 9
# [46] = cells pretreated with Plasmin 0.307 U/mL, value 8 of n = 9
# [47] = cells pretreated with Plasmin 0.307 U/mL, value 9 of n = 9
substance,measurement,setting,value
KRSRGYC,Cell area of preosteoblast cells,"[1]; cultured on modified surface for 3 h, replicate 1",2526
same,Cell area of preosteoblast cells,"[1]; cultured on modified surface for 3 h, replicate 2",2456
same,Cell area of preosteoblast cells,"[1]; cultured on modified surface for 3 h, replicate 3",2659
same,Cell area of preosteoblast cells,"[1]; cultured on modified surface for 24 h, replicate 1",4026
same,Cell area of preosteoblast cells,"[1]; cultured on modified surface for 24 h, replicate 2",4102
same,Cell area of preosteoblast cells,"[1]; cultured on modified surface for 24 h, replicate 3",4230
same,Cell density (figure 6c),[2]; [3],96
same,Cell spreading area (figure 6b),[2]; [3],2152
same,Cell density (figure 6c),[2]; [4],95
same,Cell spreading area (figure 6b),[2]; [4],2263
same,Cell density (figure 6c),[2]; [5],98
same,Cell spreading area (figure 6b),[2]; [5],2236
same,Cell density (figure 6c),[2]; [6],96
same,Cell spreading area (figure 6b),[2]; [6],2265
same,Cell density (figure 6c),[2]; [7],96
same,Cell spreading area (figure 6b),[2]; [7],2150
same,Cell density (figure 6c),[2]; [8],90
same,Cell spreading area (figure 6b),[2]; [8],2154
same,Cell density (figure 6c),[2]; [9],96
same,Cell spreading area (figure 6b),[2]; [9],2365
same,Cell density (figure 6c),[2]; [10],89
same,Cell spreading area (figure 6b),[2]; [10],2263
same,Cell density (figure 6c),[2]; [11],98
same,Cell spreading area (figure 6b),[2]; [11],2153
same,Cell density (figure 6c),[2]; [12],92
same,Cell spreading area (figure 6b),[2]; [12],2270.3
same,Cell density (figure 6c),[2]; [13],92
same,Cell spreading area (figure 6b),[2]; [13],2036
same,Cell density (figure 6c),[2]; [14],89
same,Cell spreading area (figure 6b),[2]; [14],2011.4
same,Cell density (figure 6c),[2]; [15],88
same,Cell spreading area (figure 6b),[2]; [15],2163
same,Cell density (figure 6c),[2]; [16],95
same,Cell spreading area (figure 6b),[2]; [16],2200
same,Cell density (figure 6c),[2]; [17],89
same,Cell spreading area (figure 6b),[2]; [17],2110.4
same,Cell density (figure 6c),[2]; [18],98
same,Cell spreading area (figure 6b),[2]; [18],2163
same,Cell density (figure 6c),[2]; [19],90
same,Cell spreading area (figure 6b),[2]; [19],2145
same,Cell density (figure 6c),[2]; [20],90
same,Cell spreading area (figure 6b),[2]; [20],2068
same,Cell density (figure 6c),[2]; [21],83
same,Cell spreading area (figure 6b),[2]; [21],1652
same,Cell density (figure 6c),[2]; [22],81
same,Cell spreading area (figure 6b),[2]; [22],1526.5
same,Cell density (figure 6c),[2]; [23],76
same,Cell spreading area (figure 6b),[2]; [23],1753
same,Cell density (figure 6c),[2]; [24],75
same,Cell spreading area (figure 6b),[2]; [24],1586.3
same,Cell density (figure 6c),[2]; [25],82
same,Cell spreading area (figure 6b),[2]; [25],1632
same,Cell density (figure 6c),[2]; [26],72
same,Cell spreading area (figure 6b),[2]; [26],1552.3
same,Cell density (figure 6c),[2]; [27],85
same,Cell spreading area (figure 6b),[2]; [27],1596.3
same,Cell density (figure 6c),[2]; [28],68
same,Cell spreading area (figure 6b),[2]; [28],1550
same,Cell density (figure 6c),[2]; [29],83
same,Cell spreading area (figure 6b),[2]; [29],1620
same,Cell density (figure 6c),[2]; [30],94
same,Cell spreading area (figure 6b),[2]; [30],2270.3
same,Cell density (figure 6c),[2]; [31],93
same,Cell spreading area (figure 6b),[2]; [31],1990.3
same,Cell density (figure 6c),[2]; [32],84
same,Cell spreading area (figure 6b),[2]; [32],2011.4
same,Cell density (figure 6c),[2]; [33],93
same,Cell spreading area (figure 6b),[2]; [33],1892.3
same,Cell density (figure 6c),[2]; [34],89
same,Cell spreading area (figure 6b),[2]; [34],2309.4
same,Cell density (figure 6c),[2]; [35],95
same,Cell spreading area (figure 6b),[2]; [35],2110.4
same,Cell density (figure 6c),[2]; [36],90
same,Cell spreading area (figure 6b),[2]; [36],2409.4
same,Cell density (figure 6c),[2]; [37],89
same,Cell spreading area (figure 6b),[2]; [37],1909
same,Cell density (figure 6c),[2]; [38],90
same,Cell spreading area (figure 6b),[2]; [38],1893
same,Cell density (figure 6c),[2]; [39],89
same,Cell spreading area (figure 6b),[2]; [39],2136
same,Cell density (figure 6c),[2]; [40],90
same,Cell spreading area (figure 6b),[2]; [40],2153.4
same,Cell density (figure 6c),[2]; [41],91
same,Cell spreading area (figure 6b),[2]; [41],2145
same,Cell density (figure 6c),[2]; [42],94
same,Cell spreading area (figure 6b),[2]; [42],2033
same,Cell density (figure 6c),[2]; [43],93
same,Cell spreading area (figure 6b),[2]; [43],2312.4
same,Cell density (figure 6c),[2]; [44],78
same,Cell spreading area (figure 6b),[2]; [44],2019.3
same,Cell density (figure 6c),[2]; [45],90
same,Cell spreading area (figure 6b),[2]; [45],2036
same,Cell density (figure 6c),[2]; [46],94
same,Cell spreading area (figure 6b),[2]; [46],2435.5
same,Cell density (figure 6c),[2]; [47],91
same,Cell spreading area (figure 6b),[2]; [47],2135
